Data from ChEMBL document CHEMBL3272102, “Carboxyarylindoles as nonsteroidal antiinflammatory agents” (J Med Chem, 1976).

What was measured:
[1] = system: Rattus norvegicus; experiment: Antiinflammatory activity in Wistar rat assessed as inhibition of carrageenan-induced paw edema at 200 mg/kg, po administered 30 mins prior to 1%, sc carrageenan challenge measured after 3 hrs; assay type: functional
[2] = system: Rattus norvegicus; experiment: Antiinflammatory activity in po dosed Wistar rat assessed as inhibition of carrageenan-induced paw edema administered 30 mins prior to 1%, sc carrageenan challenge measured after 3 hrs; assay type: functional
[3] = system: Rattus norvegicus; experiment: Toxicity in po dosed Wistar rat; assay type: organism-based; details: in vivo
[4] = system: Rattus norvegicus; experiment: Antiinflammatory activity in po dosed Wistar rat assessed as inhibition of carrageenan-induced paw edema administered 60 mins prior to 1%, sc carrageenan challenge measured after 3 hrs; assay type: functional
[5] = system: Rattus norvegicus; experiment: Antiinflammatory activity in po dosed Wistar rat assessed as inhibition of carrageenan-induced paw edema administered 120 mins prior to 1%, sc carrageenan challenge measured after 3 hrs; assay type: functional

Structure (SMILES) | inhibition in vivo at 200 mg/kg [1] | also measured
O=C(O)c1cc(-n2c(-c3ccccc3)cc3c2CCCC3)ccc1O | ≥ 60% | ED50 [2]: 87 mg/kg
O=C(O)c1cccc(-n2c(-c3ccccc3)cc3c2CCCC3)c1 | 20% | –
O=C(O)c1ccc(-n2c(-c3ccccc3)cc3c2CCCC3)cc1O | 0% | –
CC(=O)Oc1ccc(-n2c(-c3ccccc3)cc3c2CCCC3)cc1C(=O)O | 50% | –
COc1ccc(-n2c(-c3ccccc3)cc3c2CCCC3)cc1C(=O)O | 40% | –
CC(=O)Nc1ccc(-n2c(-c3ccccc3)cc3c2CCCC3)cc1C(=O)O | 30% | –
Nc1ccc(-n2c(-c3ccccc3)cc3c2CCCC3)cc1C(=O)O | 40% | –
O=C(O)c1cc(-n2c(-c3ccccc3)cc3c2CCCC3)ccc1Cl | 40% | –
COC(=O)c1cc(-n2c(-c3ccccc3)cc3c2CCCC3)ccc1O | 0% | –
COC(=O)c1cc(-n2c(-c3ccccc3)cc3c2CCCC3)ccc1OC(=S)N(C)C | 0% | –
COC(=O)c1cc(-n2c(-c3ccccc3)cc3c2CCCC3)ccc1SC(=O)N(C)C | 0% | –
O=C(O)c1cc(-n2c(-c3ccccc3)cc3c2CCCC3)ccc1S | 50% | –
CCNC(=O)c1cc(-n2c(-c3ccccc3)cc3c2CCc2ccccc2-3)ccc1O | 0% | –
O=C(O)c1cc(-n2c(-c3ccccc3)cc3c2CCCC3)c(C(F)(F)F)cc1O | 0% | –
O=C(O)c1cc(-n2c(-c3ccccc3)cc3c2CCCC3)cc(Br)c1O | 0% | –
O=C(O)c1cc(-n2c(-c3ccccc3)cc3c2CCCC3)cc(Cl)c1O | 0% | –
CC(=O)Nc1cc(-n2c(-c3ccccc3)cc3c2CCCC3)cc(C(=O)O)c1O | 0% | –
COc1ccc(-c2cc3c(n2-c2ccc(O)c(C(=O)O)c2)CCCC3)cc1 | 50% | ED50 [2]: 173 mg/kg
COc1cccc(-c2cc3c(n2-c2ccc(O)c(C(=O)O)c2)CCCC3)c1 | 20% | –
COc1ccccc1-c1cc2c(n1-c1ccc(O)c(C(=O)O)c1)CCCC2 | 50% | –
Cc1ccc(-c2cc3c(n2-c2ccc(O)c(C(=O)O)c2)CCCC3)cc1 | 30% | –
O=C(O)c1cc(-n2c(-c3ccc(F)cc3)cc3c2CCCC3)ccc1O | ≥ 60% | ED50 [2]: 88 mg/kg
O=C(O)c1cc(-n2c(-c3ccc(Br)cc3)cc3c2CCCC3)ccc1O | 40% | –
O=C(O)c1cc(-n2c(-c3ccc(Cl)cc3)cc3c2CCCC3)ccc1O | 40% | –
O=C(O)c1cc(-n2c(-c3ccc(Cl)c(Cl)c3)cc3c2CCCC3)ccc1O | 0% | –
O=C(O)c1cc(-n2c(-c3ccc(O)cc3)cc3c2CCCC3)ccc1O | 20% | –

Structure (SMILES) | inhibition in vivo at 200 mg/kg [1] | also measured
O=C(O)c1cc(-n2c(-c3cccc(C(F)(F)F)c3)cc3c2CCCC3)ccc1O | 20% | –
N#Cc1ccc(-c2cc3c(n2-c2ccc(O)c(C(=O)O)c2)CCCC3)cc1 | 0% | –
O=C(O)c1cc(-n2c(-c3ccc([N+](=O)[O-])cc3)cc3c2CCCC3)ccc1O | 30% | –
O=C(O)c1cc(-n2c(-c3cccs3)cc3c2CCCC3)ccc1O | 30% | –
O=C(O)c1cc(-n2c(-c3ccc(-c4ccccc4)cc3)cc3c2CCCC3)ccc1O | 50% | ED50 [2]: 162 mg/kg
CC(C)(C)c1cc2c(n1-c1ccc(O)c(C(=O)O)c1)CCc1ccccc1-2 | 40% | –
O=C(O)c1cc(-n2c3c(c(-c4ccccc4)c2-c2ccccc2)CCCC3)ccc1O | 30% | –
CC(=O)c1c2c(n(-c3ccc(O)c(C(=O)O)c3)c1-c1ccccc1)CCc1ccccc1-2 | 0% | –
O=C(O)c1cc(-n2c(-c3ccccc3)cc3c2CCC3)ccc1O | 40% | Activity [3]: Toxic
O=C(O)c1cc(-n2c(-c3ccccc3)cc3c2CCCCC3)ccc1O | 50% | Activity [3]: Toxic
O=C(O)c1cc(-n2c(-c3ccccc3)cc3c2CCCC3=O)ccc1O | 0% | –
COC1CCc2c(cc(-c3ccccc3)n2-c2ccc(O)c(C(=O)O)c2)C1 (stereo not given) | 40% | –
CC1CCc2c(cc(-c3ccccc3)n2-c2ccc(O)c(C(=O)O)c2)C1 (stereo not given) | 40% | –
CC(C)(C)C1CCc2c(cc(-c3ccccc3)n2-c2ccc(O)c(C(=O)O)c2)C1 (stereo not given) | 0% | –
O=C(O)c1cc(-n2c(-c3ccccc3)cc3c2-c2ccccc2CC3)ccc1O | 0% | –
O=C(O)c1cc(-n2c(-c3ccccc3)cc3c2CCc2cc(Cl)ccc2-3)ccc1O | 50% | –
COc1ccc2c(c1)CCc1c-2cc(-c2ccccc2)n1-c1ccc(O)c(C(=O)O)c1 | 50% | ED50 [4]: 164 mg/kg
O=C(O)c1cc(-n2c(-c3ccccc3)cc3c2Cc2ccccc2-3)ccc1O | 30% | –
COC(=O)c1cc(-n2c(-c3ccccc3)cc3c2CCc2ccccc2-3)ccc1O | 30% | –
CCOC(=O)c1cc(-n2c(-c3ccccc3)cc3c2CCc2ccccc2-3)ccc1O | 0% | –
CC(=O)Oc1ccc(-n2c(-c3ccccc3)cc3c2CCc2ccccc2-3)cc1C(=O)O | 50% | ED50 [5]: 75 mg/kg
O=C(O)c1cc(-n2c(-c3ccccc3)cc3c4ccccc4ccc32)ccc1O | ≥ 60% | ED50 [4]: 69 mg/kg; ED50 [2]: 105 mg/kg
O=C(O)c1cc(-n2c(-c3ccccc3)cc3ccccc32)ccc1O | ≥ 60% | –
CC(C)(C)c1ccc2c(c1)cc(-c1ccccc1)n2-c1ccc(O)c(C(=O)O)c1 | 0% | –
CC(=O)Oc1ccccc1C(=O)O [ASPIRIN] | ≥ 60% | ED50 [2]: 140 mg/kg
O=C(O)c1cc(-n2c(-c3ccccc3)cc3c2CCc2ccccc2-3)ccc1O [FENDOSAL] | ≥ 60% | ED50 [5]: 66 mg/kg; ED50 [2]: 125 mg/kg
